According to patent US6451736B1, “Substituted aromatic thiocarboxylic acid amides and their use as herbicides” (Bayer Aktiengesellschaft, priority 1994, dated 2002):

Tests used:
Type in all cases: in vivo
Maize [1] = test: Pre-emergence test/greenhouse; details: Table B, after three weeks
Procedure: (§1) To produce a suitable preparation of active compound, 1 part by weight of active compound is mixed with the stated amount of solvent, the stated amount of emulsifier is added and the concentrate is diluted with water to the desired concentration.
(§2) Seeds of the test plants are sown in normal soil and, after 24 hours, watered with the preparation of active compound. It is expedient to keep constant the amount of water per unit area. The concentration of the active compound in the preparation is of no importance, only the amount of active compound applied per unit area being decisive. After three weeks, the degree of damage to the plants is rated in % damage in comparison to the development of the untreated control. The figures denote:
(§3) 0%=no action (like untreated control)

Abuthilon [2] = test: Pre-emergence test/greenhouse; details: Table B, after three weeks
Procedure: as §1, §2, §3

Chenopodium [3] = test: Pre-emergence test/greenhouse; details: Table B, after three weeks
Procedure: as §1, §2, §3

Matricaria = test: Pre-emergence test/greenhouse; details: Table B, after three weeks
Procedure: as §1, §2, §3

Portulaca = test: Pre-emergence test/greenhouse; details: Table B, after three weeks
Procedure: as §1, §2, §3

Solanum [4] = test: Pre-emergence test/greenhouse; details: Table B, after three weeks
Procedure: as §1, §2, §3

Amaranthus [5] = test: Pre-emergence test/greenhouse; details: Table B, after three weeks
Procedure: as §1, §2, §3

Wheat [6] = test: Pre-emergence test/greenhouse; details: Table B, after three weeks
Procedure: as §1, §2, §3

Veronica = test: Post-emergence test/greenhouse; details: Table C, after three weeks
Procedure: as §1
(§4) Test plants which have a height of 5-15 cm are sprayed with the preparation of active compound in such a way as to apply the particular amounts of active compound desired per unit area. After three weeks, the degree of damage to the plants is rated in % damage in comparison to the development of the untreated control.
(§5) 0%=no action (like intreated control)

Maize [7] = test: Post-emergence test/greenhouse; details: Table C, after three weeks
Procedure: as §1, §4, §5

Abuthilon [8] = test: Post-emergence test/greenhouse; details: Table C, after three weeks
Procedure: as §1, §4, §5

Chenopodium [9] = test: Post-emergence test/greenhouse; details: Table C, after three weeks
Procedure: as §1, §4, §5

Solanum [10] = test: Post-emergence test/greenhouse; details: Table C, after three weeks
Procedure: as §1, §4, §5

Amaranthus [11] = test: Post-emergence test/greenhouse; details: Table C, after three weeks
Procedure: as §1, §4, §5

Wheat [12] = test: Post-emergence test/greenhouse; details: Table C, after three weeks
Procedure: as §1, §4, §5

Row | Structure (SMILES) | degree of damage, Maize (Maize [1]; 60 g/ha) [%] | degree of damage, Abuthilon (Abuthilon [2]; 60 g/ha) [%] | degree of damage, Chenopodium (Chenopodium [3]; 60 g/ha) [%] | degree of damage, Matricaria (Matricaria; 60 g/ha) [%] | degree of damage, Portulaca (Portulaca; 60 g/ha) [%] | degree of damage, Solanum (Solanum [4]; 60 g/ha) [%] | degree of damage, Amaranthus (Amaranthus [5]; 60 g/ha) [%] | degree of damage, Wheat (Wheat [6]; 60 g/ha) [%] | degree of damage, Veronica (Veronica; 15 g/ha) [%] | degree of damage, Maize (Maize [7]; 15 g/ha) [%] | degree of damage, Abuthilon (Abuthilon [8]; 15 g/ha) [%] | degree of damage, Chenopodium (Chenopodium [9]; 15 g/ha) [%] | degree of damage, Solanum (Solanum [10]; 15 g/ha) [%] | degree of damage, Amaranthus (Amaranthus [11]; 15 g/ha) [%] | degree of damage, Maize (Maize [1]; 30 g/ha) [%] | degree of damage, Chenopodium (Chenopodium [3]; 30 g/ha) [%] | degree of damage, Matricaria (Matricaria; 30 g/ha) [%] | degree of damage, Portulaca (Portulaca; 30 g/ha) [%] | degree of damage, Solanum (Solanum [4]; 30 g/ha) [%] | degree of damage, Wheat (Wheat [6]; 30 g/ha) [%] | also measured
1 | CCS(=O)(=O)Nc1cc(-n2nc(C3CC3)n(C)c2=O)c(F)cc1C(N)=S [Example 13] | 0 | 100 | 100 | 70 | 90 | 100 | 100 | 0 | 90 | 30 | 95 | 80 | 100 | 100 |  |  |  |  |  |  | degree of damage, Wheat (Wheat [12]; 15 g/ha): 0%
2 | CCS(=O)(=O)Nc1cc(N2C(=O)C3=C(CCCC3)C2=O)c(F)cc1C(N)=S [Example 23] | 0 | 95 | 95 | 100 | 95 | 70 | 70 | 0 |  |  |  |  |  |  |  |  |  |  |  |  | degree of damage, Veronica (Veronica; 30 g/ha): 100%; degree of damage, Maize (Maize [7]; 30 g/ha): 50%; degree of damage, Abuthilon (Abuthilon [8]; 30 g/ha): 95%; degree of damage, Chenopodium (Chenopodium [9]; 30 g/ha): 90%; degree of damage, Solanum (Solanum [10]; 30 g/ha): 100%; degree of damage, Wheat (Wheat [12]; 30 g/ha): 0%
3 | CCn1c(C(F)(F)F)nn(-c2cc(N(C)S(=O)(=O)CC)c(C(N)=S)cc2F)c1=O [Example 16] | 0 | 95 | 100 | 90 | 80 | 80 | 20 | 10 |  |  |  |  |  |  |  |  |  |  |  |  | degree of damage, Veronica (Veronica; 60 g/ha): 100%; degree of damage, Maize (Maize [7]; 60 g/ha): 60%; degree of damage, Abuthilon (Abuthilon [8]; 60 g/ha): 95%; degree of damage, Chenopodium (Chenopodium [9]; 60 g/ha): 100%; degree of damage, Solanum (Solanum [10]; 60 g/ha): 100%; degree of damage, Amaranthus (Amaranthus [11]; 60 g/ha): 100%; degree of damage, Wheat (Wheat [12]; 60 g/ha): 20%
4 | CC(C)Oc1cc(-n2nc3n(c2=O)CCCC3)c(F)cc1C(N)=S [Example 17] |  |  |  |  |  |  |  |  |  |  |  |  |  |  | 0 | 100 | 100 | 100 | 100 | 0 | degree of damage, Abuthilon (Abuthilon [2]; 30 g/ha): 100%; degree of damage, Amaranthus (Amaranthus [5]; 30 g/ha): 100%; degree of damage, Veronica (Veronica; 8 g/ha): 100%; degree of damage, Maize (Maize [7]; 8 g/ha): 10%; degree of damage, Abuthilon (Abuthilon [8]; 8 g/ha): 100%; degree of damage, Chenopodium (Chenopodium [9]; 8 g/ha): 95%; degree of damage, Solanum (Solanum [10]; 8 g/ha): 100%; degree of damage, Amaranthus (Amaranthus [11]; 8 g/ha): 100%; degree of damage, Wheat (Wheat [12]; 8 g/ha): 10%
5 | COCCOCCOc1cc(-n2nc(C)n(C(F)F)c2=O)c(F)cc1C(N)=S [Example 51] |  |  |  |  |  |  |  |  | 100 | 60 | 100 | 70 | 100 | 100 | 20 | 100 | 95 | 100 | 100 | 0 | degree of damage, Abuthilon (Abuthilon [2]; 30 g/ha): 100%; degree of damage, Wheat (Wheat [12]; 15 g/ha): 15%
6 | C#CC(C)Oc1cc(-n2nc(C(F)(F)F)n(C)c2=O)c(F)cc1C(N)=S (stereo not drawn) [Example 32] |  |  |  |  |  |  |  |  |  |  |  |  |  |  | 0 | 100 | 100 | 95 | 100 | 10 | degree of damage, Amaranthus (Amaranthus [5]; 30 g/ha): 100%; degree of damage, Veronica (Veronica; 4 g/ha): 100%; degree of damage, Maize (Maize [7]; 4 g/ha): 30%; degree of damage, Abuthilon (Abuthilon [8]; 4 g/ha): 100%; degree of damage, Chenopodium (Chenopodium [9]; 4 g/ha): 95%; degree of damage, Solanum (Solanum [10]; 4 g/ha): 100%; degree of damage, Amaranthus (Amaranthus [11]; 4 g/ha): 100%; degree of damage, Wheat (Wheat [12]; 4 g/ha): 15%
